# From US12583852B2, “Heterocycle derivative” (JW PHARMACEUTICAL CORPORATION, priority 2018, dated 2026)
# System: human dermal papilla cells
# Assay: Promotion of proliferation of human dermal papilla cells (CellTiter-Glo Luminescent cell viability assay)
# Type: cell-based
# Conditions: human dermal papilla cells (ScienCell, 2499); drug 0 to 30 μM; 48 hours; CellTiter-Glo luminescence; compared to DMSO-treated control group
# Procedure: The effect of promoting cell proliferation by the drug was analyzed using human dermal papilla cells (ScienCell, 2499). Human dermal papilla cells cultured using Mesenchymal Stem Cell Medium (ScienCell, 7501) medium were seeded at a density of 3×10^3 cells/well and in a volume of 100 μl in a 96-well plate, incubated overnight at 37° C. and 5% CO2, treated with the drug at different concentrations ranging from 0 to 30 μM in a volume of 100 μL, and incubated at 37° C. and 5% CO2 for 48 hours. CellTiter-Glo Luminescent cell viability assay was performed according to the manufacturer's protocol (Promega, G7573) to detect cell proliferation. Luminescence was measured using an Envision 2102 multilabeled reader (PerkinElmer) equipment, and the cell proliferation rate was analyzed by the activity of the drug-treated group compared to the DMSO-treated group (control group), which is a solvent of the drug.
row,Compound,Maximum DP cell proliferation (%)
1,"CN(C)CCn1nc(N)c2cc(F)c(Nc3cccc4c3CCC4)nc21 [Compound 96, N6-(2,3-dihydro-1H-inden-4-yl)-1-(2-(dimethylamino)ethyl)-5-fluoro-1H-pyrazolo[3,4-b]pyridine-3,6-diamine]",1.2%
2,"O=C1c2ccccc2C(=O)N1c1nn(C2CCCCO2)c2nc(Nc3cccc4c3CCC4)c(F)cc12 (stereo not drawn) [Compound 97, 2-(6-((2,3-dihydro-1H-inden-4-yl)amino)-5-fluoro-1-(tetrahydro-2H-pyran-2-yl)-1H-pyrazolo[3,4-b]pyridin-3-yl)isoindoline-1,3-dione]",10%
3,"Nc1nn(CC(=O)c2ccccc2)c2nc(Nc3cccc4c3CCC4)c(F)cc12 [Compound 100, 2-(3-amino-6-((2,3-dihydro-1H-inden-4-yl)amino)-5-fluoro-1H-pyrazolo[3,4-b]pyridin-1-yl)-1-phenylethan-1-one]",0.8%
4,"COC(=O)CNc1n[nH]c2nc(Nc3cccc4c3CCC4)c(F)cc12 [Compound 101, methyl (6-((2,3-dihydro-1H-inden-4-yl)amino)-5-fluoro-1H-pyrazolo[3,4-b]pyridin-3-yl)glycinate]",9.7%
5,"CNc1n[nH]c2nc(Nc3cccc4c3CCC4)c(F)cc12 [Compound 102, 5-fluoro-N6-indan-4-yl-N3-methyl-1H-pyrazolo[3,4-b]pyridine-3,6-diamine]",13%
6,"Fc1cc2cn[nH]c2nc1Nc1cccc2c1CCC2 [Compound 104, N-(2,3-dihydro-1H-inden-4-yl)-5-fluoro-1H-pyrazolo[3,4-b]pyridin-6-amine]",15%
7,"CN(C)c1n[nH]c2nc(Nc3cccc4c3CCC4)c(F)cc12 [Example 105, N6-(2,3-dihydro-1H-inden-4-yl)-5-fluoro-N3,N3-dimethyl-1H-pyrazolo[3,4-b]pyridine-3,6-diamine]",12%
8,"CS(=O)(=O)Nc1n[nH]c2nc(Nc3cccc4c3CCC4)c(F)cc12 [Example 106, N-(6-((2,3-dihydro-1H-inden-4-yl)amino)-5-fluoro-1H-pyrazolo[3,4-b]pyridin-3-yl)methanesulfonamide]",4.8%
9,"Fc1cc2c(-c3ccccc3)n[nH]c2nc1Nc1cccc2c1CCC2 [Example 109, 5-fluoro-N-indan-4-yl-3-phenyl-1H-pyrazolo[3,4-b]pyridin-6-amine]",3.6%
10,"Nc1n[nH]c2nc(Nc3cccc4c3CCC4)ncc12 [Example 112, N6-(2,3-dihydro-1H-inden-4-yl)-1H-pyrazolo[3,4-d]pyrimidine-3,6-diamine]",2%
11,"Nc1n[nH]c2nc(Nc3cccc(C(F)F)c3F)ncc12 [Example 115, N6-(3-(difluoromethyl)-2-fluorophenyl)-1H-pyrazolo[3,4-d]pyrimidine-3,6-diamine]",3.7%
12,"Nc1n[nH]c2nc(Nc3cccc4c3CCC4)nc(Cl)c12 [Example 116, 4-chloro-N6-indan-4-yl-3a,4-didehydro-1H-pyrazolo[3,4-d]pyrimidine-3,6-diamine]",5.9%
13,"Nc1n[nH]c2nc(Nc3cccc(C(F)(F)F)c3F)ncc12 [Example 117, N6-[2-fluoro-3-(trifluoromethyl)phenyl]-1H-pyrazolo[3,4-d]pyrimidine-3,6-diamine]",6.7%
14,"Fc1cc2c(Br)n[nH]c2nc1Nc1c(Br)cc(Br)c2c1CCC2 [Example 119, 3-bromo-N-(5,7-dibromoindan-4-yl)-5-fluoro-1H-pyrazolo[3,4-b]pyridin-6-amine]",1.3%
15,"O/N=N\c1n[nH]c2nc(Nc3cccc4c3CCC4)c(F)cc12 [Example 122, (Z)-N-(2,3-dihydro-1H-inden-4-yl)-5-fluoro-3-(hydroxydiazenyl)-1H-pyrazolo[3,4-b]pyridin-6-amine]",5.3%
